Assay results as given in patent US4207326A, “Antimicrobial quaternary pyrazole derivatives” (Cilag-Chemie A.G., priority 1979, dated 1980).

These compounds were tested on E. coli (assay: Antibacterial activity: Minimum Inhibitory Concentration). Conditions: Escherichia coli, Day 1, 37° C., 24 hours.
Format: cell-based, Escherichia coli ATCC 8739
Method: (§1) The antimicrobial activity was determined by inoculation of the test microorganism into suitable growth media containing solutions of the compounds at concentrations of 100, 50, 10, 5, 1.0, 0.5 and 0.1 μg/ml. The reference antibiotics used were Gentamicin for the antibacterial tests and Amphotericin B for the antimycotic and antifungal tests. After incubation the antimicrobial activity was recorded as the Minimal Inhibitory Concentration (M.I.C.), i.e., the lowest concentration preventing macroscopically visible growth, for each test compound against each organism.
(§2) An initial solution of each formula (I) compound to be tested in sterile distilled water was prepared at a concentration of 1000 μg/ml. With appropriate dilutions using sterile distilled water, additional solutions were prepared at concentrations of 500, 100, 50, 10, 5 and 1 μg/ml.
(§3) They were cultured and maintained on Tryptone Soy Agar (Oxoid CM 131), with the addition of 10% horse blood for the S. pyogenes.
(§4) To prepare the organisms as inocula for the test, slopes of this medium were streaked with the organisms and incubated at 37° C. for 24 hours. 4.5 Ml volumes of Brian-Heart Infusion Broth (Oxoid CM 225) were then inoculated with a platinum loop from the agar slope cultures and incubated for 24 hours at 37° C. The final inocula were then prepared by adding 0.1 ml aliquots of the Brain-Heart Infusion Broth cultures to 100 ml volumes of sterile physiological saline.
(§5) (a) For the test on each of the bacterial strains and each of the test and reference compounds, a series of 8 tubes containing 4.5 ml volumes of Brain-Heart Infusion Broth (Oxoid CM 225) were prepared. To 7 of these were added 0.5 ml volumes of the final solutions of the test compouns, giving final concentrations in the broths of 100, 50, 10, 5, 1.0, 0.5 and 0.1 μg/ml. To the eighth tube in each series was added 0.5 ml of the solvent used and diluted as for the preparation of the 1000 μg/ml solution of the compound. This tube was used as the growth control. The tubes were inoculated with 0.02 ml aliquots of the inocula prepared in accordance with "(a) Bacteria" above, and incubated at 37° C. for 24 hours. The tubes were then examined for evidence of bacterial growth as shown by turbidity of the medium and the lowest concentration of the test compound which prevented bacterial growth was recorded as the Minimal Inhibitory Concentration. This test procedure was carried out on two separate days.

SMILES	MIC
CCCCCCCCCCCCCC[n+]1c(C)cc(C)n1Cc1ccc([N+](=O)[O-])cc1.[Br-] [Example 6-D, 3,5-dimethyl-2(4-nitrobenzyl)-1-tetradecyl-pyrazolium bromide]	50 µg/mL
CCCCCCCCCCCC[n+]1c(C)cc(C)n1Cc1ccc(Cl)cc1.[Br-] [Example 6-E, 2-(p-chlorobenzyl)-3,5-dimethyl-1-dodecyl-pyrazolium bromide]	10 µg/mL
C=CCn1c(C)cc(C)[n+]1CCCCCCCCCCCCCCCC.[Br-] [Example 7, 2-allyl-3,5-dimethyl-1-hexadecyl-pyrazoliumbromide]	10 µg/mL

Same assay, conditions: Escherichia coli, Day 2, 37° C., 24 hours

SMILES	MIC
CCCCCCCCCCCCCC[n+]1c(C)cc(C)n1Cc1ccc([N+](=O)[O-])cc1.[Br-] [Example 6-D, 3,5-dimethyl-2(4-nitrobenzyl)-1-tetradecyl-pyrazolium bromide]	100 µg/mL
CCCCCCCCCCCC[n+]1c(C)cc(C)n1Cc1ccc(Cl)cc1.[Br-] [Example 6-E, 2-(p-chlorobenzyl)-3,5-dimethyl-1-dodecyl-pyrazolium bromide]	10 µg/mL
C=CCn1c(C)cc(C)[n+]1CCCCCCCCCCCCCCCC.[Br-] [Example 7, 2-allyl-3,5-dimethyl-1-hexadecyl-pyrazoliumbromide]	5 µg/mL

The compounds below were run on P. mirabilis in the same assay as above. Conditions: Proteus mirabilis; P. mirabilis, Day 1; 37° C., 24 hours; read-out: Minimum Inhibitory Concentration.
Format: cell-based, Proteus mirabilis NCTC 8559
Method: as §1, §2, §3, §4, §5

SMILES	MIC
CCCCCCCCCCCCCC[n+]1c(C)cc(C)n1Cc1ccc([N+](=O)[O-])cc1.[Br-] [Example 6-D, 3,5-dimethyl-2(4-nitrobenzyl)-1-tetradecyl-pyrazolium bromide]	50 µg/mL
CCCCCCCCCCCC[n+]1c(C)cc(C)n1Cc1ccc(Cl)cc1.[Br-] [Example 6-E, 2-(p-chlorobenzyl)-3,5-dimethyl-1-dodecyl-pyrazolium bromide]	50 µg/mL
C=CCn1c(C)cc(C)[n+]1CCCCCCCCCCCCCCCC.[Br-] [Example 7, 2-allyl-3,5-dimethyl-1-hexadecyl-pyrazoliumbromide]	10 µg/mL

Same assay, conditions: Proteus mirabilis; P. mirabilis, Day 2; 37° C., 24 hours; read-out: Minimum Inhibitory Concentration

SMILES	MIC
CCCCCCCCCCCCCC[n+]1c(C)cc(C)n1Cc1ccc([N+](=O)[O-])cc1.[Br-] [Example 6-D, 3,5-dimethyl-2(4-nitrobenzyl)-1-tetradecyl-pyrazolium bromide]	50 µg/mL
CCCCCCCCCCCC[n+]1c(C)cc(C)n1Cc1ccc(Cl)cc1.[Br-] [Example 6-E, 2-(p-chlorobenzyl)-3,5-dimethyl-1-dodecyl-pyrazolium bromide]	50 µg/mL
C=CCn1c(C)cc(C)[n+]1CCCCCCCCCCCCCCCC.[Br-] [Example 7, 2-allyl-3,5-dimethyl-1-hexadecyl-pyrazoliumbromide]	50 µg/mL

These compounds were tested on C. tropicalis (assay: Antimycotic activity: Minimum Inhibitory Concentration). Conditions: Candida tropicalis, pH 5.5, C. tropicalis, Day 1; pH 5.5, 37° C., 72 hours; read-out: Minimum Inhibitory Concentrations.
Format: cell-based, Candida tropicalis NCPF 3111
Method: as §1, §2
The two species, C. albicans and C. tropicalis, were maintained on Sabouraud-Dextrose Agar (Oxoid CM41) and cultures for the preparation of the inoculum were incubated on this agar at 37° C. for 48 hours. 4.5 Ml volumes of citric acid-phosphate buffer pH 5.5 plus Yeast-Nitrogen Base (Difco 0392-15) were then inoculated from the agar cultures and incubated at 37° C. for 48 hours. 0.1 Ml aliquots of these cultures were then added to 100 ml volumes of sterile physiological saline to give the final inocula.
(b) For the tests on each of the C. albicans, C. tropicalis and C. neoformans strains and each of the test and reference compounds, a series of 8 tubes containing 4.5 ml volumes of citric acid-phosphate buffer pH 5.5 plus Yeast-Nitrogen Base (Difco 0392-15) were prepared. To 7 of these were added 0.5 ml volumes of the final solutions of the test compounds, giving final concentrations in the broths of 100, 50, 10, 5, 1.0, 0.5 and 0.1 μg/ml. To the eighth tube in each series was added 0.5 ml of the solvent used and diluted as for the preparation of the 1000 μg/ml solution of the compound. This tube was used as the growth control. The tubes were then inoculated with 0.1 ml aliquots of the inocula prepared as in "(b) Fungi" above. The tubes inoculated with the C. albicans and C. tropicalis were inoculated at 37° C. for 72 hours and the tubes inoculated with the C. neoformans straim were incubated at 30° C. for 72 hours. […] The tubes were then examined for evidence of growth as shown by turbidity of the medium and the lowest concentration of the test compound which prevented fungal growth was recorded as the Minimal Inhibitory Concentration. This test procedure was carried out on two separate days.

SMILES	MIC
CCCCCCCCCCCCCC[n+]1c(C)cc(C)n1Cc1ccc([N+](=O)[O-])cc1.[Br-] [Example 6-D, 3,5-dimethyl-2(4-nitrobenzyl)-1-tetradecyl-pyrazolium bromide]	5 µg/mL
CCCCCCCCCCCC[n+]1c(C)cc(C)n1Cc1ccc(Cl)cc1.[Br-] [Example 6-E, 2-(p-chlorobenzyl)-3,5-dimethyl-1-dodecyl-pyrazolium bromide]	5 µg/mL
C=CCn1c(C)cc(C)[n+]1CCCCCCCCCCCCCCCC.[Br-] [Example 7, 2-allyl-3,5-dimethyl-1-hexadecyl-pyrazoliumbromide]	0.5 µg/mL

Same assay, conditions: Candida tropicalis, pH 5.5, C. tropicalis, Day 2; pH 5.5, 37° C., 72 hours; read-out: Minimum Inhibitory Concentrations

SMILES	MIC
CCCCCCCCCCCCCC[n+]1c(C)cc(C)n1Cc1ccc([N+](=O)[O-])cc1.[Br-] [Example 6-D, 3,5-dimethyl-2(4-nitrobenzyl)-1-tetradecyl-pyrazolium bromide]	5 µg/mL
CCCCCCCCCCCC[n+]1c(C)cc(C)n1Cc1ccc(Cl)cc1.[Br-] [Example 6-E, 2-(p-chlorobenzyl)-3,5-dimethyl-1-dodecyl-pyrazolium bromide]	1 µg/mL
C=CCn1c(C)cc(C)[n+]1CCCCCCCCCCCCCCCC.[Br-] [Example 7, 2-allyl-3,5-dimethyl-1-hexadecyl-pyrazoliumbromide]	0.5 µg/mL

What follows are compounds tested on T. mentagrophytes (assay: Antifungal activity: Minimum Inhibitory Concentration). Conditions: Trichophyton mentagrophytes, T. mentagrophytes, Day 1; 27° C., one week; read-out: Minimum Inhibitory Concentration.
Format: cell-based, Trichophyton mentagrophytes NCPF 410
Method: as §1, §2
T. mentagrophytes NCPF 410
(§6) The A. corymbifera, A. fumigatus, S. schenkii, T. rubrum, T. mentagrophytes, M. canis and P. verrucosa strains were all maintained on Sabouraud-Dextrose Agar (Oxoid CM 41) by incubating for 14 days at 27° C. To prepare the inocula 30 ml volumes of Sabouraud-Liquid medium (Oxoid CM 147) were inoculated from the agar cultures and incubated at 27° C. until heavy uniform growth resulted. The mycelial growth was then broken up by shaking with glass beads.
(§7) 1 Ml aliquots were removed from each of the cultures for the purpose of making viable counts and the cultures were then held at 4° C. The viable counts were made by preparing serial ten-fold dilutions of the cultures in sterile physiological saline and spreading on plates of Sabouraud-Dextrose Agar (Oxoid CM 41) which were then incubated at 27° C. for 14 days. When the viable counts had confirmed that each of the inocula contained approximately 10^6 colony forming units (C.F.U.) per ml the cultures were withdrawn from the refrigerator and used as the inocula for the tests.
(§8) (c) For the tests on each of the remaining seven strains and each of the test and reference compounds, a series of 8 tubes containing 4.5 ml volumes of Sabouraud-Liquid Medium (Oxoid CM 147) were prepared. To 7 of these were added 0.5 ml volumes of the final solutions of the test compounds, giving final concentrations in the broths of 100, 50, 10, 5, 1.0, 0.5 and 0.1 μg/ml. To the eighth tube in each series was added 0.5 ml of the solvent used and diluted as for the preparation of the 500 μg/ml solution of the compound. This tube was used as a growth control. The tubes were then inoculated with 0.1 ml aliquots of the inocula prepared as in "(b) Fungi" above. The tubes were then incubated at 27° C. with continuous shaking for a period of one week. The tubes were then examined for evidence of growth as shown by the presence of mycelial growth in the medium and the lowest concentration of the test compound which prevented fungal growth was recorded as the Minimal Inhibitory Concentration. This test procedure was carried out on two separate days.

SMILES	MIC
CCCCCCCCCCCCCC[n+]1c(C)cc(C)n1Cc1ccc([N+](=O)[O-])cc1.[Br-] [Example 6-D, 3,5-dimethyl-2(4-nitrobenzyl)-1-tetradecyl-pyrazolium bromide]	10 µg/mL
CCCCCCCCCCCC[n+]1c(C)cc(C)n1Cc1ccc(Cl)cc1.[Br-] [Example 6-E, 2-(p-chlorobenzyl)-3,5-dimethyl-1-dodecyl-pyrazolium bromide]	5 µg/mL
C=CCn1c(C)cc(C)[n+]1CCCCCCCCCCCCCCCC.[Br-] [Example 7, 2-allyl-3,5-dimethyl-1-hexadecyl-pyrazoliumbromide]	1 µg/mL

Same assay, conditions: Trichophyton mentagrophytes, T. mentagrophytes, Day 2; 27° C., one week; read-out: Minimum Inhibitory Concentration

SMILES	MIC
CCCCCCCCCCCCCC[n+]1c(C)cc(C)n1Cc1ccc([N+](=O)[O-])cc1.[Br-] [Example 6-D, 3,5-dimethyl-2(4-nitrobenzyl)-1-tetradecyl-pyrazolium bromide]	10 µg/mL
CCCCCCCCCCCC[n+]1c(C)cc(C)n1Cc1ccc(Cl)cc1.[Br-] [Example 6-E, 2-(p-chlorobenzyl)-3,5-dimethyl-1-dodecyl-pyrazolium bromide]	5 µg/mL
C=CCn1c(C)cc(C)[n+]1CCCCCCCCCCCCCCCC.[Br-] [Example 7, 2-allyl-3,5-dimethyl-1-hexadecyl-pyrazoliumbromide]	5 µg/mL

Each compound was assayed on M. canis in the same assay as above. Conditions: Microsporum canis, M. canis, Day 1; 27° C., one week; read-out: Minimum Inhibitory Concentration.
Format: cell-based, Microsporum canis NCPF 351
Method: as §1, §2, §6, §7, §8

SMILES	MIC
CCCCCCCCCCCCCC[n+]1c(C)cc(C)n1Cc1ccc([N+](=O)[O-])cc1.[Br-] [Example 6-D, 3,5-dimethyl-2(4-nitrobenzyl)-1-tetradecyl-pyrazolium bromide]	10 µg/mL
CCCCCCCCCCCC[n+]1c(C)cc(C)n1Cc1ccc(Cl)cc1.[Br-] [Example 6-E, 2-(p-chlorobenzyl)-3,5-dimethyl-1-dodecyl-pyrazolium bromide]	1 µg/mL
C=CCn1c(C)cc(C)[n+]1CCCCCCCCCCCCCCCC.[Br-] [Example 7, 2-allyl-3,5-dimethyl-1-hexadecyl-pyrazoliumbromide]	5 µg/mL

Same assay, conditions: Microsporum canis, M. canis, Day 2; 27° C., one week; read-out: Minimum Inhibitory Concentration

SMILES	MIC
CCCCCCCCCCCCCC[n+]1c(C)cc(C)n1Cc1ccc([N+](=O)[O-])cc1.[Br-] [Example 6-D, 3,5-dimethyl-2(4-nitrobenzyl)-1-tetradecyl-pyrazolium bromide]	5 µg/mL
CCCCCCCCCCCC[n+]1c(C)cc(C)n1Cc1ccc(Cl)cc1.[Br-] [Example 6-E, 2-(p-chlorobenzyl)-3,5-dimethyl-1-dodecyl-pyrazolium bromide]	5 µg/mL
C=CCn1c(C)cc(C)[n+]1CCCCCCCCCCCCCCCC.[Br-] [Example 7, 2-allyl-3,5-dimethyl-1-hexadecyl-pyrazoliumbromide]	10 µg/mL

Each compound was assayed on P. verrucosa in the same assay as above. Conditions: Phialophora verrucosa, P. verrucosa, Day 1; 27° C., one week; read-out: Minimum Inhibitory Concentration.
Format: cell-based, Phialophore verrucosa NCPF 1119
Method: as §1, §2, §6, §7, §8

SMILES	MIC
CCCCCCCCCCCCCC[n+]1c(C)cc(C)n1Cc1ccc([N+](=O)[O-])cc1.[Br-] [Example 6-D, 3,5-dimethyl-2(4-nitrobenzyl)-1-tetradecyl-pyrazolium bromide]	10 µg/mL
CCCCCCCCCCCC[n+]1c(C)cc(C)n1Cc1ccc(Cl)cc1.[Br-] [Example 6-E, 2-(p-chlorobenzyl)-3,5-dimethyl-1-dodecyl-pyrazolium bromide]	5 µg/mL
C=CCn1c(C)cc(C)[n+]1CCCCCCCCCCCCCCCC.[Br-] [Example 7, 2-allyl-3,5-dimethyl-1-hexadecyl-pyrazoliumbromide]	5 µg/mL

Same assay, conditions: Phialophora verrucosa, P. verrucosa, Day 2; 27° C., one week; read-out: Minimum Inhibitory Concentration

SMILES	MIC
CCCCCCCCCCCCCC[n+]1c(C)cc(C)n1Cc1ccc([N+](=O)[O-])cc1.[Br-] [Example 6-D, 3,5-dimethyl-2(4-nitrobenzyl)-1-tetradecyl-pyrazolium bromide]	10 µg/mL
CCCCCCCCCCCC[n+]1c(C)cc(C)n1Cc1ccc(Cl)cc1.[Br-] [Example 6-E, 2-(p-chlorobenzyl)-3,5-dimethyl-1-dodecyl-pyrazolium bromide]	5 µg/mL
C=CCn1c(C)cc(C)[n+]1CCCCCCCCCCCCCCCC.[Br-] [Example 7, 2-allyl-3,5-dimethyl-1-hexadecyl-pyrazoliumbromide]	5 µg/mL
